This passage reports pest or weed control, plant injury and Corn plant response rating (crop injury, 0 = no effect, 100 = complete kill) results from patent US12077503B2, “Substituted cyclic amides and their use as herbicides” (FMC CORPORATION, priority 2015, dated 2024).

Like-named read-outs stand apart in the source and are kept apart here.

What all share (assay type): in vivo
Assay [1] concerns blackgrass (Alopecurus myosuroides). The assay is described as follows: Test A postemergence. The note with it: Alopecurus myosuroides, post-emergence, 240 h, 125 g ai/ha. In short, it runs like this:
(§1)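 Greenhouse, ~10 d after spray; visual injury vs untreated controls, 0 = no effect, 100 = complete control. Preemergence: directed soil spray over planted seeds. Postemergence: plants 2–10 cm, 1–2 leaf stage. Loam/sand blend. Compound in non-phytotoxic solvent with surfactant.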

The subject of assay [2] is ragweed (common ragweed, Ambrosia elatior). The assay is described as follows: Test A postemergence. The note with it: Ambrosia artemisiifolia, post-emergence, 240 h, 125 g ai/ha. In a few lines: as §1
Assay [3] has as its system barnyardgrass (Echinochloa crus-galli). The assay is described as follows: Test A postemergence. Particulars: Echinochloa crus-galli, post-emergence, 240 h, 125 g ai/ha. In short, it runs like this:
as §1

Assay [4] has as its system ryegrass, Italian (Italian ryegrass, Lolium multiflorum). The assay is described as follows: Test A postemergence. The note with it: Lolium multiflorum, post-emergence, 240 h, 125 g ai/ha. In a few lines:
as §1

The subject of assay [5] is pigweed (Amaranthus retroflexus). The assay is described as follows: Test A postemergence. Particulars: Amaranthus retroflexus, post-emergence, 240 h, 125 g ai/ha. In a few lines:
as §1

Assay [6] concerns giant foxtail (Setaria faberii). The assay is described as follows: Test A postemergence. Particulars: Setaria faberi, post-emergence, 240 h, 125 g ai/ha. In a few lines: as §1
For assay [7], the system named is Galium (catchweed bedstraw, Galium aparine). The assay is described as follows: Test A postemergence. The note with it: Galium, post-emergence, 240 h, 125 g ai/ha. In a few lines: as §1
The next assay relates to corn (Zea mays). The assay is described as follows: Test A postemergence. The note with it: Zea mays, post-emergence, 240 h, 125 g ai/ha. In short, it runs like this: as §1
In assay [8] the test system is wheat (Triticum aestivum). The assay is described as follows: Test A postemergence. The note with it: Triticum aestivum, post-emergence, 240 h, 125 g ai/ha. In a few lines:
as §1

Assay [9] concerns ragweed (common ragweed, Ambrosia elatior). Nature of the assay: Test A preemergence. The note with it: Ambrosia artemisiifolia, pre-emergence, 240 h; for pest or weed control at 500 g/ha: 500 g ai/ha. In a few lines:
as §1

The subject of assay [10] is barnyardgrass (Echinochloa crus-galli). The assay is described as follows: Test A preemergence. Particulars: Echinochloa crus-galli, pre-emergence, 240 h; for pest or weed control at 125 g/ha: 125 g ai/ha, 0 to 100 scale where 0 is no effect and 100 is complete control; for pest or weed control at 500 g/ha: 500 g ai/ha. In short, it runs like this: as §1
Assay [11] concerns ryegrass, Italian (Italian ryegrass, Lolium multiflorum). The assay is described as follows: Test A preemergence. The note with it: Lolium multiflorum, pre-emergence, 240 h; for pest or weed control at 500 g/ha: 500 g ai/ha. In short, it runs like this: as §1
The test system of assay [12] is pigweed (Amaranthus retroflexus). Nature of the assay: Test A preemergence. Particulars: Amaranthus retroflexus, pre-emergence, 240 h; for pest or weed control at 125 g/ha: 125 g ai/ha, 0 to 100 scale where 0 is no effect and 100 is complete control; for pest or weed control at 500 g/ha: 500 g ai/ha.
The subject of assay [13] is giant foxtail (Setaria faberii). The assay is described as follows: Test A preemergence. The note with it: Setaria faberi, pre-emergence, 240 h; for pest or weed control at 125 g/ha: 125 g ai/ha, 0 to 100 scale where 0 is no effect and 100 is complete control; for pest or weed control at 500 g/ha: 500 g ai/ha. In short, it runs like this: as §1
For a further assay, the system named is Kochia (Kochia scoparia). The assay is described as follows: Test A preemergence. The note with it: Bassia scoparia, pre-emergence, 240 h; for pest or weed control at 125 g/ha: 125 g ai/ha, 0 to 100 scale where 0 is no effect and 100 is complete control; for pest or weed control at 500 g/ha: 500 g ai/ha. In a few lines:
as §1

[14] abbreviates: preemergence, read-out: Barnyardgrass plant response rating.
Setting [15] is: preemergence, read-out: Pigweed plant response rating.
The mark [16] stands for this setting: preemergence, read-out: Foxtail, Giant plant response rating.
The mark [17] stands for this setting: preemergence, read-out: Kochia plant response rating.

As to `COc1cc([C@H]2CN(C)C(=O)[C@@H]2C(=O)Nc2cccc(F)c2F)cc(C(F)(F)F)c1` [Compound 856], the pest or weed control at 125 g/ha in [1] (postemergence, visual injury rating after approximately 10 d, read-out: Blackgrass plant response rating (0 to 100 scale, 0 no effect, 100 complete control)) was determined as 60%; in [2] (postemergence, visual injury rating after approximately 10 d, read-out: Ragweed plant response rating (0 to 100 scale, 0 no effect, 100 complete control)), 0%; in assay [3] (postemergence, visual injury rating after approximately 10 d, read-out: Barnyardgrass plant response rating (0 to 100 scale, 0 no effect, 100 complete control)), 80%; in assay [4] (postemergence, visual injury rating after approximately 10 d, read-out: Ryegrass, Italian plant response rating (0 to 100 scale, 0 no effect, 100 complete control)) it was 40%; in assay [5] (postemergence, visual injury rating after approximately 10 d, read-out: Pigweed plant response rating (0 to 100 scale, 0 no effect, 100 complete control)) it was 20%; in assay [6] (postemergence, visual injury rating after approximately 10 d, read-out: Foxtail, Giant plant response rating (0 to 100 scale, 0 no effect, 100 complete control)), 90%. Moreover, the pest or weed control at 125 g/ha was determined as 40% in [7] (postemergence, visual injury rating after approximately 10 d, read-out: Galium plant response rating (0 to 100 scale, 0 no effect, 100 complete control)); 0% in [9] (125 g ai/ha, preemergence, 0 to 100 scale where 0 is no effect and 100 is complete control, read-out: Ragweed plant response rating); 90% in assay [10] (setting [14]); 50% in [11] (125 g ai/ha, preemergence, 0 to 100 scale where 0 is no effect and 100 is complete control, read-out: Ryegrass, Italian plant response rating); 20% in assay [12] (setting [15]); 90% in assay [13] (setting [16]). The pest or weed control at 125 g/ha in the assay on Kochia (Kochia scoparia) (setting [17]) is 40%. The plant injury at 125 g/ha in the assay with corn (Zea mays) (postemergence, visual injury rating after approximately 10 d, read-out: Corn plant response rating (0 to 100 scale, 0 no effect, 100 complete control)) turned out to be 80%; in assay [8] (postemergence, visual injury rating after approximately 10 d, read-out: Wheat plant response rating (0 to 100 scale, 0 no effect, 100 complete control)), 50%. Further, the pest or weed control at 500 g/ha in assay [9] (Preemergence, visual injury vs untreated controls after approximately 10 d, read-out: Ragweed plant response rating (0 to 100 scale where 0 is no effect and 100 is complete control)) amounted to 20%; in [10] (Preemergence, visual injury vs untreated controls after approximately 10 d, read-out: Barnyardgrass plant response rating (0 to 100 scale where 0 is no effect and 100 is complete control)), 90%; in assay [11] (Preemergence, visual injury vs untreated controls after approximately 10 d, read-out: Ryegrass, Italian plant response rating (0 to 100 scale where 0 is no effect and 100 is complete control)) it was 80%; in assay [12] (Preemergence, visual injury vs untreated controls after approximately 10 d, read-out: Pigweed plant response rating (0 to 100 scale where 0 is no effect and 100 is complete control)), 50%; in [13] (Preemergence, visual injury vs untreated controls after approximately 10 d, read-out: Foxtail, Giant plant response rating (0 to 100 scale where 0 is no effect and 100 is complete control)), 90%; in the assay on Kochia (Kochia scoparia) (Preemergence, visual injury vs untreated controls after approximately 10 d, read-out: Kochia plant response rating (0 to 100 scale where 0 is no effect and 100 is complete control)), 50%.

Turning to `Cc1cc([C@H]2CN(C)C(=O)[C@@H]2C(=O)Nc2ccc(F)cc2F)ccc1Cl` [Compound 930], the pest or weed control at 125 g/ha in [1] (Postemergence, visual injury after approximately 10 d, 0 to 100 scale where 0 is no effect and 100 is complete control, read-out: Plant response rating, Blackgrass) was 20%; in assay [2] (Postemergence, visual injury after approximately 10 d, 0 to 100 scale where 0 is no effect and 100 is complete control, read-out: Plant response rating, Ragweed), 0%; in assay [3] (Postemergence, visual injury after approximately 10 d, 0 to 100 scale where 0 is no effect and 100 is complete control, read-out: Plant response rating, Barnyardgrass) it was 80%; in [4] (Postemergence, visual injury after approximately 10 d, 0 to 100 scale where 0 is no effect and 100 is complete control, read-out: Plant response rating, Ryegrass, Italian), 30%; in assay [5] (Postemergence, visual injury after approximately 10 d, 0 to 100 scale where 0 is no effect and 100 is complete control, read-out: Plant response rating, Pigweed), 30%; in assay [6] (Postemergence, visual injury after approximately 10 d, 0 to 100 scale where 0 is no effect and 100 is complete control, read-out: Plant response rating, Foxtail, Giant), 80%. The pest or weed control at 125 g/ha in [7] (Postemergence, visual injury after approximately 10 d, 0 to 100 scale where 0 is no effect and 100 is complete control, read-out: Plant response rating, Galium) amounted to 40%; in assay [10] (setting [14]), 90%; in [12] (setting [15]), 20%; in assay [13] (setting [16]), 90%; in the assay with Kochia (Kochia scoparia) (setting [17]) it was 70%. Also, the Corn plant response rating (crop injury, 0 = no effect, 100 = complete kill) at 125 g/ha in the assay on corn (Zea mays) (Postemergence, visual injury after approximately 10 d, 0 to 100 scale where 0 is no effect and 100 is complete control) stood at 40%. Also, the plant injury at 125 g/ha in assay [8] (Postemergence, visual injury after approximately 10 d, 0 to 100 scale where 0 is no effect and 100 is complete control, read-out: Plant response rating, Wheat) amounted to 30%. In addition, the pest or weed control at 500 g/ha worked out at 0% in assay [9] (preemergence, visual injury rating about 10 d after treatment, 0 to 100 scale (0 no effect, 100 complete control), read-out: Ragweed plant response rating); 90% in [10] (preemergence, visual injury rating about 10 d after treatment, 0 to 100 scale (0 no effect, 100 complete control), read-out: Barnyardgrass plant response rating); 70% in assay [11] (preemergence, visual injury rating about 10 d after treatment, 0 to 100 scale (0 no effect, 100 complete control), read-out: Ryegrass, Italian plant response rating); 30% in assay [12] (preemergence, visual injury rating about 10 d after treatment, 0 to 100 scale (0 no effect, 100 complete control), read-out: Pigweed plant response rating); 90% in assay [13] (preemergence, visual injury rating about 10 d after treatment, 0 to 100 scale (0 no effect, 100 complete control), read-out: Foxtail, Giant plant response rating); 90% with Kochia (Kochia scoparia) (preemergence, visual injury rating about 10 d after treatment, 0 to 100 scale (0 no effect, 100 complete control), read-out: Kochia plant response rating).
